# Values quoted from earlier work, collected in patent US11207302B2, “1,2,5-oxadiazoles as inhibitors of indoleamine 2,3-dioxygenase” (Incyte Corporation, priority 2008, dated 2021).
# Tests used:
# P815 tumor = conditions: pre-immunized immune-competent mice challenged with murine tumor cells
# LLC tumors = LLC tumors in C57Bl/6 mice, versus placebo
smiles,measurement,setting,value
"Cn1cc(C[C@H](N)C(=O)O)c2ccccc21 [Example 1-MT, 1-methyl-tryptophan]",growth of tumors,P815 tumor,inhibited
same,formation of tumors,LLC tumors,markedly delayed
